{
  "source": "paper PMC8187357",
  "about": "(Communications Biology, 2021)",
  "key": {"Angiotensin -II AT1, AT2": {"system": "Angiotensin -II AT1, AT2", "test": "CEREP 80 panel binding: Angiotensin-II", "details": "10 µM", "method": "(§1) CEREP 80 panel assay was carried out by Eurofins Cerep Panlabs facility at France. A series of binding assays was carried out to understand the off-target toxicity of CA-170. CA-170 was tested at 10 μM test concentration in duplicates. Compound binding was calculated as a % inhibition of the binding of a radioactively labeled ligand specific for each target. In each experiment the respective reference compound was tested concurrently with CA-170, and the data were compared with historical values determined at Eurofins. The experiment was accepted in accordance with Eurofins validation standard operating procedure. The results are expressed as a percent of control specific binding; (measured specific binding / control specific binding) × 100 and as a percent inhibition of control specific binding; 100−(measured specific binding / control specific binding) × 100 obtained in the presence of CA-170. The IC50 values (concentration causing a half-maximal inhibition of control specific binding) and Hill coefficients (nH) were determined by non-linear regression analysis of the competition curves generated with mean replicate values using Hill equation curve fitting."}, "Sigma": {"system": "Sigma", "test": "CEREP 80 panel binding: Sigma", "details": "10 µM", "method": "as §1"}, "Histamine H1,H2": {"system": "Histamine H1,H2", "test": "CEREP 80 panel binding: Histamine", "details": "10 µM", "method": "as §1"}, "Melatonin MT1": {"target": "T1, Melatonin MT1 (Homo sapiens, UniProt P48039)", "T1 construct": "Eurofins Cerep Panlabs (contract assay)", "T1 sequence (P48039 whole entry)": "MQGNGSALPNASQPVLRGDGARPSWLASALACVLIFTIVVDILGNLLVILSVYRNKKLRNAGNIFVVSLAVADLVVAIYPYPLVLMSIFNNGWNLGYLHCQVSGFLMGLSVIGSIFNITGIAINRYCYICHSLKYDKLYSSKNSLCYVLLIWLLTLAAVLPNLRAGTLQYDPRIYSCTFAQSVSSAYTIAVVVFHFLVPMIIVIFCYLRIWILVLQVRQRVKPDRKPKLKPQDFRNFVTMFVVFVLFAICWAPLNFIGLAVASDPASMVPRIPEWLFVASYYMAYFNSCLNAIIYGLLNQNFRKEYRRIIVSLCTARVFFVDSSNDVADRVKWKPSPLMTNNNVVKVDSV", "test": "CEREP 80 panel binding: Melatonin", "details": "read-out: % Inhibition of Control Specific Binding", "method": "as §1"}, "Adenosine A1, A2A, A3": {"system": "Adenosine A1, A2A, A3", "test": "CEREP 80 panel binding: Adenosine", "details": "10 µM", "method": "as §1"}, "Melanocortin MC4": {"target": "T2, Melanocortin MC4 (Homo sapiens, UniProt P32245)", "T2 construct": "Eurofins Cerep Panlabs (contract assay)", "T2 sequence (P32245 whole entry)": "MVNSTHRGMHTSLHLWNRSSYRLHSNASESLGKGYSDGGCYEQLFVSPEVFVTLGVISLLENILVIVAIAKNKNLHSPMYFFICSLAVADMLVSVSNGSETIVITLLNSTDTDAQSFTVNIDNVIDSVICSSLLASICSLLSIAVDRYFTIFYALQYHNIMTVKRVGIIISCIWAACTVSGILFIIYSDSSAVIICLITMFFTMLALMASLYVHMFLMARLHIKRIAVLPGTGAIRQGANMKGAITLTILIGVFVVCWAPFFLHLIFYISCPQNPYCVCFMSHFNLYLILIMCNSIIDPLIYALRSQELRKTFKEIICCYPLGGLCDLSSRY", "test": "CEREP 80 panel binding: Melanocortin", "details": "read-out: % Inhibition of Control Specific Binding", "method": "as §1"}, "[1]": {"system": "Dopamine D1, D2S, D3, D44, D5", "test": "CEREP 80 panel binding: Dopamine", "details": "10 µM", "method": "as §1"}, "MC38 colon carcinoma": {"system": "MC38 colon carcinoma", "test": "MC38 tumors in immunodeficient SCID beige mice", "format": "in vivo, mouse", "details": "for Individual tumor volumes: MC-38 in SCID beige mice, 10mg/kg, 10 mg/kg", "method": "For MC38 syngeneic colon carcinoma subcutaneous model, 0.5 × 10^6 MC38 cells (Source: NCI/NIH, kind gift from Dr. Michael Pollack) were injected subcutaneously to the left flank of the C57B6 mouse (In-house) or SCID Beige mice (Source: Harlan, France) on day 1 and dosing was initiated when average tumor volume reached ~100 mm^3. Animals were randomized based on tumor volumes and treated with either a vehicle control or CA-170 at indicated doses for 14 days. Anti-PD1 antibody (Clone J43 from BioXcel) was dosed intraperitoneally at 100 µg/animal once every week. Treatment efficacy was assessed in terms of the effects of the test substances on the tumor volumes of treated mice relative to vehicle-treated mice. Tumor growth curves of test and control groups using the mean tumor volumes were drawn, percent tumor growth inhibition (%TGI) […]."}, "CGRP": {"target": "T3, CGRP (Homo sapiens, UniProt O60894+Q16602)", "T3 construct": "Eurofins Cerep Panlabs (contract assay)", "T3 sequence (Q16602 23-461)": "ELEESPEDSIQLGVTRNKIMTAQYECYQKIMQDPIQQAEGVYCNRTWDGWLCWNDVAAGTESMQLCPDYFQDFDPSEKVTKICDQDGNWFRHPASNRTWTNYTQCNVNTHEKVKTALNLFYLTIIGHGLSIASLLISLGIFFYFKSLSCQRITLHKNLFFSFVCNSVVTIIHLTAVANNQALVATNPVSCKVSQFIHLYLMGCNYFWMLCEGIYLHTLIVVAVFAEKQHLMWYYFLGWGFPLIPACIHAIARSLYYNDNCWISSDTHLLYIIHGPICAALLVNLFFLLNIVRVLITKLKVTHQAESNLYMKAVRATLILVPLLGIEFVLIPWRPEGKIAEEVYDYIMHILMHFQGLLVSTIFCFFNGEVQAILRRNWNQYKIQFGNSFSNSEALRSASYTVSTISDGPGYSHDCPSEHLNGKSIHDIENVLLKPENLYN", "T3 sequence (O60894 27-148)": "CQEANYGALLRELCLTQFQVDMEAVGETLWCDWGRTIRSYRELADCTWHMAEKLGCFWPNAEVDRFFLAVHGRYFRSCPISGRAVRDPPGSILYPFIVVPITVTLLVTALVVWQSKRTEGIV", "test": "CEREP 80 panel binding: CGRP", "details": "read-out: % Inhibition of Control Specific Binding", "method": "as §1"}, "CTLA4": {"target": "T4, CTLA4 (Homo sapiens, UniProt P16410)", "T4 construct": "Fc (Ig); purchased R & D systems 325-CT", "T4 sequence (P16410 with tags, fused parts or gaps limits assumed)": "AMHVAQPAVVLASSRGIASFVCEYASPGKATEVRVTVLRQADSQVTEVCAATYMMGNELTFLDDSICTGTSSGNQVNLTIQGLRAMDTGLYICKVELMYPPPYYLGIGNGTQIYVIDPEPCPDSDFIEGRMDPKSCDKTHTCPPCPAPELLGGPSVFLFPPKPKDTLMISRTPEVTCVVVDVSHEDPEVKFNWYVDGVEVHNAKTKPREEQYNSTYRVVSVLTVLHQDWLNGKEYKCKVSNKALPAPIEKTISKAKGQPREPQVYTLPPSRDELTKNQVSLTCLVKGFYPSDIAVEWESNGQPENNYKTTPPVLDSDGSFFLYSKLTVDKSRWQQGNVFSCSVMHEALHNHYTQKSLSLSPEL", "test": "CTLA4-B7.1 functional assay (IL-2, Jurkat T cells)", "format": "cell-based", "details": "for IL2: Jurkat + B7.1 + PHA + CTLA-4 200 ng/mL, replicates", "method": "CA-170 was evaluated for its potential impact on B7.1 mediated immune-inhibitory interaction with CTLA4 by monitoring the rescue of release of IL-2 in the presence of recombinant CTLA4-Ig and B7.1 in T cells stimulated with phytohemagglutinin (PHA). Briefly, Jurkat T cells (0.25 × 10^5 cells/well of a 96-well plate) grown and starved in serum-free RPMI1640 media for 2 h were stimulated with PHA (10 µg/mL) and B7.1 (500 ng/mL) in the presence of recombinant human CTLA4-Ig (200 ng/mL) and different concentrations of CA-170 and cultured for 48 h at 37 °C. After 48 h of cell culture, supernatant was analyzed for IL-2 by ELISA. Anti-CTLA4 antibody and isotypes were used as controls."}, "[2]": {"system": "Adrenergic α1, α2, β1, β2", "test": "CEREP 80 panel binding: Adrenergic", "details": "10 µM", "method": "as §1"}, "PD-L1": {"target": "T5, PD-L1 (Mus musculus, UniProt Q9EP73)", "T5 construct": "purchased R&D Systems 1019-B7-100", "T5 sequence (Q9EP73 with tags, fused parts or gaps limits assumed)": "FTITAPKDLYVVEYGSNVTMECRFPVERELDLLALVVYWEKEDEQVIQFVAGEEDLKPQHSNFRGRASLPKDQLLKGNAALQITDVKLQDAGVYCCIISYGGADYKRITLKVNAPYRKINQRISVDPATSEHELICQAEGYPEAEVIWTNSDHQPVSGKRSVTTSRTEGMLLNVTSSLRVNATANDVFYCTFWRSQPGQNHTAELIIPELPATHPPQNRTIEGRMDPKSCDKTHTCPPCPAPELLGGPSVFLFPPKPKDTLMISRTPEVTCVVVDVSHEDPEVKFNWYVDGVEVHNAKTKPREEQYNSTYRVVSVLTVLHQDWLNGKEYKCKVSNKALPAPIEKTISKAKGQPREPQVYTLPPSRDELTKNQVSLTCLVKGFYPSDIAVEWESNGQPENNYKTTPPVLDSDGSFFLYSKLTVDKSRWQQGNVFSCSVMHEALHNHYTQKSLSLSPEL", "test": "Rescue of IFN-γ release inhibited by PD-L1, mouse splenocytes", "format": "cell-based", "details": "mean ± S.D.; n=2; read-out: Mouse Splenocyte IFN-γ Rescue EC50 PD-L1", "procedure": "The ability of peptides, peptidomimetics, and small molecules were analyzed for their ability to rescue T-cell proliferation or IFN-γ release from the inhibitory activity of PD-L1 or PD-L2 in a splenocyte/PBMC-based functional assay as per the protocols reported in publication[20]. […] For all in vitro assays, test agent stock was prepared in water and diluted further in the assay media to achieve test concentrations. Each experimental condition was carried out in triplicates. Percent rescue for a given test compound concentration was calculated by normalizing individual percent test agent proliferation or IFN-γ release values to percent anti-CD3 and anti-CD28 antibodies stimulated proliferation or IFN-γ release. EC50 values were derived by plotting transformed data into non-linear fit in sigmoidal dose–response curve using GraphPad Prism software (Version 7)."}, "Chemokines CCR1, CXCR2": {"system": "Chemokines CCR1, CXCR2", "test": "CEREP 80 panel binding: Chemokines", "details": "10 µM", "method": "as §1"}, "Glutamate PCP": {"system": "Glutamate PCP", "test": "CEREP 80 panel binding: Glutamate", "details": "10 µM", "method": "as §1"}, "DOP, KOP, MOP, NOP": {"system": "DOP, KOP, MOP, NOP", "test": "CEREP 80 panel binding: Opioid & Opioid like", "details": "10 µM", "method": "as §1"}, "Galanin GAL1, GAL2": {"system": "Galanin GAL1, GAL2", "test": "CEREP 80 panel binding: Galanin", "details": "10 µM", "method": "as §1"}, "purinergic P2X, P2Y": {"system": "purinergic P2X, P2Y", "test": "CEREP 80 panel binding: purinergic", "details": "10 µM", "method": "as §1"}, "[3]": {"system": "Neurokinin NK1, NK2, NK3 (antagonist)", "test": "CEREP 80 panel binding: Neurokinin", "details": "10 µM", "method": "as §1"}, "Pharmacokinetics in mice": {"test": "Pharmacokinetics in mice", "format": "in vivo, mouse", "method": "Animals in Group 1 were administered with 5% w/v dextrose in water and Group 2 were administered with corresponding formulation listed in the Supplementary Table 6 through oral routes. Blood samples (approximately 40 μl) were collected under light isoflurane anesthesia from submandibular at predose, 0.08 (IV), 0.25, 0.5, 1, 2, 4, 8, and 24 h using sparse sampling technique. Plasma samples were separated by centrifugation of whole blood and stored below −70 °C until bioanalysis. All samples were processed for analysis by protein precipitation and analyzed with fit-for-purpose LC–MS/MS method."}},
  "note": "Several values for one entry are separate records, joined by “and”; a condition that tells them apart may be missing. Equal entries are not always repeated. Entries after “also recorded” stand apart in the source; their conditions may differ. Where two headings read alike, the source gives them in different places.",
  "data": [
    {"smiles": "C[C@@H](O)[C@H](NC(=O)N[C@@H](CC(N)=O)c1nc([C@@H](N)CO)no1)C(=O)O", "note": "[CA-170]", "values": [
      {"measurement": "% Inhibition of Control Specific Binding", "setting": "Angiotensin -II AT1, AT2", "value": "≤ 5", "unit": "%"},
      {"measurement": "% Inhibition of Control Specific Binding", "setting": "Sigma", "value": 20, "unit": "%"},
      {"measurement": "% Inhibition of Control Specific Binding", "setting": "Histamine H1,H2", "value": "< 0", "unit": "%"},
      {"measurement": "inhibition at 10 µM", "setting": "Melatonin MT1", "value": 5, "unit": "%"},
      {"measurement": "% Inhibition of Control Specific Binding", "setting": "Adenosine A1, A2A, A3", "value": "≤ 26", "unit": "%"},
      {"measurement": "inhibition at 10 µM", "setting": "Melanocortin MC4", "value": 0, "unit": "%"},
      {"measurement": "% Inhibition of Control Specific Binding", "setting": "[1]", "value": "≤ 14", "unit": "%"},
      {"measurement": "Individual tumor volumes", "setting": "MC38 colon carcinoma; day 0 of treatment", "value": "18.9 mm3 and 19.8 mm3 and 20.5 mm3 and 23 mm3 and 24.3 mm3 and 24.4 mm3 and 27.8 mm3 and 29.3 mm3 and 36.6 mm3 and 38.8 mm3 and 45.9 mm3"},
      {"measurement": "Individual tumor volumes", "setting": "MC38 colon carcinoma; day 4 of treatment", "value": "165.2 mm3 and 101 mm3 and 33 mm3 and 98.6 mm3 and 101.4 mm3 and 42.7 mm3 and 80.2 mm3 and 120.3 mm3 and 117 mm3 and 120.8 mm3 and 58.8 mm3"},
      {"measurement": "Individual tumor volumes", "setting": "MC38 colon carcinoma; day 6 of treatment", "value": "428.8 mm3 and 320.3 mm3 and 190.1 mm3 and 337.3 mm3 and 331.1 mm3 and 174.3 mm3 and 206.7 mm3 and 322.4 mm3 and 214 mm3 and 233.5 mm3 and 207.9 mm3"},
      {"measurement": "Individual tumor volumes", "setting": "MC38 colon carcinoma; day 8 of treatment", "value": "764.7 mm3 and 861.8 mm3 and 304.4 mm3 and 735.9 mm3 and 484.9 mm3 and 297 mm3 and 527.3 mm3 and 483.7 mm3 and 349.6 mm3 and 472.6 mm3 and 369.9 mm3"},
      {"measurement": "Individual tumor volumes", "setting": "MC38 colon carcinoma; day 11 of treatment", "value": "1229.8 mm3 and 1458.4 mm3 and 838.9 mm3 and 1334.2 mm3 and 1120.4 mm3 and 912.1 mm3 and 1214.1 mm3 and 1274.2 mm3 and 788.4 mm3 and 1032.8 mm3 and 931.5 mm3"},
      {"measurement": "Individual tumor volumes", "setting": "MC38 colon carcinoma; day 13 of treatment", "value": "1679 mm3 and 1958.7 mm3 and 1062 mm3 and 1678.6 mm3 and 1535.8 mm3 and 938 mm3 and 1760.9 mm3 and 1177.1 mm3 and 1641.5 mm3 and 1410.5 mm3"},
      {"measurement": "tumor growth vs vehicle in immunodeficient mice (in words)", "setting": "MC38 colon carcinoma; SCID beige mice, MC-38, 10 mg/kg/day for 14 days", "value": "no difference in the tumor volumes; also recorded: no statistically significant difference"},
      {"measurement": "inhibition at 10 µM", "setting": "CGRP", "value": 1, "unit": "%"},
      {"measurement": "IL2", "setting": "CTLA4; 10 nM", "value": "100.732 pg/mL and 119.610 pg/mL and 100.195 pg/mL"},
      {"measurement": "IL2", "setting": "CTLA4; 100 nM", "value": "131.122 pg/mL and 123.634 pg/mL and 97.951 pg/mL"},
      {"measurement": "IL2", "setting": "CTLA4; 1000 nM", "value": "139.927 pg/mL and 131.366 pg/mL and 108.171 pg/mL"},
      {"measurement": "rescue of IL-2 release inhibited by recombinant hCTLA-4 (in words)", "setting": "CTLA4; Jurkat cells stimulated with PHA + human B7-1", "value": "did not rescue the release of IL-2"},
      {"measurement": "% Inhibition of Control Specific Binding", "setting": "[2]", "value": "≤ 6", "unit": "%"},
      {"measurement": "EC50", "setting": "PD-L1", "value": 34.6, "unit": "nM"},
      {"measurement": "% Inhibition of Control Specific Binding", "setting": "Chemokines CCR1, CXCR2", "value": 1, "unit": "%"},
      {"measurement": "% Inhibition of Control Specific Binding", "setting": "Glutamate PCP", "value": 5, "unit": "%"},
      {"measurement": "% Inhibition of Control Specific Binding", "setting": "DOP, KOP, MOP, NOP", "value": "≤ 9", "unit": "%"},
      {"measurement": "% Inhibition of Control Specific Binding", "setting": "Galanin GAL1, GAL2", "value": "≤ 12", "unit": "%"},
      {"measurement": "% Inhibition of Control Specific Binding", "setting": "purinergic P2X, P2Y", "value": "≤ 3", "unit": "%"},
      {"measurement": "% Inhibition of Control Specific Binding", "setting": "[3]", "value": "≤ 6", "unit": "%"},
      {"measurement": "AUC", "setting": "Pharmacokinetics in mice; male, CD-1, mouse, plasma, mice, intravenous 1 mg kg−1, read-out: Mice PK parameters AUCi iv(0-α)", "value": 4200, "unit": "ng·h/mL"},
      {"measurement": "clearance", "setting": "Pharmacokinetics in mice; male, CD-1, mouse, plasma, mice, intravenous 1 mg kg−1, read-out: Mice PK parameters Clearance (converted)", "value": 12.1, "unit": "mL/min/kg"},
      {"measurement": "bioavailability", "setting": "Pharmacokinetics in mice; male, CD-1, mouse, plasma, mice, iv 1 mg kg−1, oral 30 mg kg−1, read-out: Mice PK parameters % F", "value": 50, "unit": "%"},
      {"measurement": "AUC", "setting": "Pharmacokinetics in mice; male, CD-1, mouse, plasma, mice, oral 30 mg kg−1, read-out: Mice PK parameters AUC po (0-α)", "value": 19600, "unit": "ng·h/mL"},
      {"measurement": "Cmax", "setting": "Pharmacokinetics in mice; male, CD-1, mouse, plasma, mice, oral 30 mg kg−1, read-out: Mice PK parameters Cmax", "value": 1720, "unit": "ng/mL"},
      {"measurement": "half-life", "setting": "Pharmacokinetics in mice; male, CD-1, mouse, plasma, preclinical PK exposure", "value": 204, "unit": "min"},
      {"measurement": "oral bioavailability (in words)", "setting": "Pharmacokinetics in mice; mouse, in vivo, po", "value": "good oral bioavailability"}
    ]}
  ]
}
